According to patent US8097592B2, “Cocrystal of C-glycoside derivative and L-proline” (Astellas Pharma Inc., priority 2006, dated 2012):

Key:
[1] = Storage stability test (X-ray powder diffraction at various humidities and storage conditions); assay type: physicochemical
Protocol: (2) Humidity-Controlled Measurement “MAC Science […] 22 with a multifunctional humidity and temperature converter ([…] 235)” equipped with a copper X-ray tube was used under the conditions of a current of 350 mA, a tube voltage of 50 kV, a sampling width of 0.020°, a scanning rate of 3°/min, wavelength of 1.54056 Å, and measurement angles of diffraction range of (2θ): 5 to 40°. [Storage Stability Test] The measurement of X-ray powder diffraction was conducted continuously at 25° C. in a relative humidity range of 2 to 88%.

[2] = target: Human Na^+-Glucose Cotransporter (Human SGLT2) (Homo sapiens, UniProt P31639); assay: cell-based
Chain of Human Na^+-Glucose Cotransporter (Human SGLT2) (P31639 whole entry): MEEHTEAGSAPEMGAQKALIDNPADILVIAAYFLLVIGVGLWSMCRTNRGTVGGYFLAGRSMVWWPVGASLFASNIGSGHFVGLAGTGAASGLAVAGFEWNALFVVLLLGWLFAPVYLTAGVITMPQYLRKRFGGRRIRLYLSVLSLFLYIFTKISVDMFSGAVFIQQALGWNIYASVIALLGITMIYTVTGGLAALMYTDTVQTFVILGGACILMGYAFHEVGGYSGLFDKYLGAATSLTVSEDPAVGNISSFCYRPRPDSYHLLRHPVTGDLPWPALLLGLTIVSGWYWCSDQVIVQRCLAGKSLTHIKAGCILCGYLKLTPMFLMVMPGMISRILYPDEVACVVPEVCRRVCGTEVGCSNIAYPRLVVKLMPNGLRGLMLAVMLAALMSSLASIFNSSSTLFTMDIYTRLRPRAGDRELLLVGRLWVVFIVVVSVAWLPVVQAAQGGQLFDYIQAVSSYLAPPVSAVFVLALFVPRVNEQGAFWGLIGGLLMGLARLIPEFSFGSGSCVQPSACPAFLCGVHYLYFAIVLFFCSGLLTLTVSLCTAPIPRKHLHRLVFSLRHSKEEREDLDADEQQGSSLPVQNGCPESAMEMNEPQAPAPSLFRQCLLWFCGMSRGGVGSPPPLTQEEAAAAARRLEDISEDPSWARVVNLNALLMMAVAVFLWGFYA
Protocol: (Test 1) [Test for Confirming Effect of Inhibiting Activity of Human Na^+-Glucose Cotransporter (Human SGLT2)]
3) Measurement of Inhibition of methyl-α-D-glucopyranoside Intake
After removing the medium of a CHO cell which stably express the human SGLT2, a pretreatment buffer solution (buffer solution of pH 7.4 containing choline chloride (140 mM), potassium chloride (2 mM), calcium chloride (1 mM), magnesium chloride (1 mM), 2-[4-(2-hydroxyethyl)-1-piperazinyl]ethanesulfonic acid (10 mM), and tris(hydroxymethyl)aminomethane (5 mM)) was added in the amount of 100 μl per well, and incubated at 37° C. for 20 minutes.
11 μl of methyl-α-D-(U-14C) glucopyranoside
(manufactured by Amersham Pharmacia Biotech) was added to and mixed with 1,000 μl of a buffer solution for intake containing a cocrystal of the present invention (buffer solution of pH 7.4 containing sodium chloride (140 mM), potassium chloride (2 mM), calcium chloride (1 mM), magnesium chloride (1 mM), methyl-α-D-glucopyranoside (50 μM), 2-[4-(2-hydroxyethyl)-1-piperazinyl]ethanesulfonic acid (10 mM), and tris(hydroxymethyl)aminomethane (5 mM)) to prepare a buffer solution for intake. A buffer solution for intake without a test crystal was prepared for a control group. […]

[3] = Moisture absorptivity test (weight change, VTI SGS-100); assay type: physicochemical; conditions: for moisture absorption behaviour: interval 5%
Protocol: [Moisture Absorptivity Test] Weight change was measured by using of “VTI SGS-100” under the conditions of temperature=25° C., relative humidity range=5 to 95%, and relative humidity interval=5%. […] Further, while known compound A gives moisture absorption curves slightly different from each other depending upon the particle size and crystal habit, there was a case that 3.2% of water was desorbed and absorbed at 25° C. at 5 to 95% RH.

KK-A^y mice = assay: Test for confirming effect of antihyperglycemic action (blood sugar AUC 0 to 8 hours); assay type: in vivo; conditions: non-fasted male KK-A^y mice, oral, 1 mg/10 mL suspension at 10 mL/kg
Protocol: (Test 2): [Test for Confirming Effect of Antihyperglycemic Action] Non-fasted KK-A^y mice (Clea Japan, Inc., male) were used as a test animal. The cocrystal of the present invention was suspended in an aqueous 0.5% methyl cellulose solution, in a concentration of 1 mg/10 mL. The body weight of each mouse was measured, and the suspension of the cocrystal of the present invention was forcibly administered orally in an amount of 10 mL/kg. Only the aqueous 0.5% methyl cellulose solution was administered to a control group. The number of mice per each group was 6. Blood samples were taken from the tail vein of each mouse right before administration and 1, 2, 4 and 8 hours after administration. Blood sugar value was measured using Glucose CII Test Wako (Wako Pure Chemical Industries, ltd.). From the blood sugar values of the cocrystal of the present invention-administered group at 0 to 8 hours were calculated an area under blood sugar value-time curve (AUC) according to the trapezoidal method; a ratio (%) of that area to the area of control group was determined; and it was taken as intensity of […] action.

[4] = 25° C., relative humidity range 5 to 95%

## OC[C@H]1O[C@@H](c2ccc(F)c(Cc3cc4ccccc4s3)c2)[C@H](O)[C@@H](O)[C@@H]1O [cocrystal of the present invention, cocrystal of (1S)-1,5-anhydro-1-[3-(1-benzothien-2-ylmethyl)-4-fluorophenyl]-D-glucitol and L-proline]
[1]; 40° C./75% RH/open
  physical stability on standing: physically stable for at least two months
[1]; 60° C./uncontrolled humidity
  physical stability on standing: physically stable for at least two months
[1]; 80° C./uncontrolled humidity
  physical stability on standing: physically stable for at least two months
[1]; up to 7 days at room temperature (25° C.) at 63.5% RH to 84% RH
  physical change on standing: no physical change
[2]
  IC50: 5.8 nM
[3]; [4]
  physical stability in the moisture absorptivity test: stable physically
  moisture absorption behaviour: no moisture absorptivity
[3]; 25° C., total relative humidity range of 5 to 95%
  moisture content: ≤ 0.7%
KK-A^y mice
  intensity of antihyperglycemic action (ratio of blood sugar AUC to control group): strong antihypoglycemic action

## OC[C@H]1O[C@@H](c2ccc(F)c(Cc3cc4ccccc4s3)c2)[C@H](O)[C@@H](O)[C@@H]1O [known compound A, (1S)-1,5-anhydro-1-[3-(1-benzothien-2-ylmethyl)-4-fluorophenyl]-D-glucitol, reference compound]
[1]; 25° C., relative humidity range of 2 to 88%, continuous measurement
  X-ray powder diffraction change associated with the change of relative humidity: shift of diffraction angle
[1]; crystals from various crystallization conditions, room temperature and low humidity
  physical stability of crystals of free form: physically unstable crystals
[3]; 25° C. at 5 to 95% RH
  water desorbed and absorbed: 3.2%
[3]; 25° C., from relative humidity of 25 to 35%
  weight change: sharp increase in weight
[3]; [4]
  moisture absorption behaviour: non-stoichiometric moisture absorption accompanied by physical change at low humidity
